Here are results for ten compounds from US11542273B2, “Amide compound having bet proteolysis-inducing action and medicinal application thereof” (MITSUBISHI TANABE PHARMA CORPORATION, priority 2018, dated 2023).

Assay [1] deals with human prostate cancer LNCaP cells. Kind of assay: Cytotoxic action on cancer cells (WST-8, 96 hr). The format is cell-based. The settings on record: Homo sapiens, LNCaP, 96 h, read-out: LNCaP cytotoxic activity: IC50. As to the method:
The cytotoxic action of the compound of the present invention against human cancer cells was evaluated in vitro. In this experiment, (+)-JQ1 (Nature volume 468, pages 1067-1073 (23 Dec. 2010)) known to have an inhibitory activity on the binding of BRD4 protein and a ligand therefor was used as a positive control drug. Respective cells were suspended in 10% FBS/RPMI1640, seeded in a 96 well plate and cultured at 5% CO2, 37° C. overnight. A test compound dissolved in DMSO was diluted with 10% FBS/RPMI1640 and added and the cells were further cultured for 96 hr. After culturing, the viable cell number was measured using a cell number measurement WST-8 kit (Kishida Chemical Co., Ltd.). As a control, the measurement was performed under conditions free of the test compound. The cytotoxic activity of the compound of the present invention against human prostate cancer LNCaP cells is shown in IC50 value in Table 1. […] It was calculated from the straight line connecting the cell survival rate at two points enclosing the 50% cell survival rate and the compound concentration. In addition, the cytotoxic activity against respective cancer cells of human acute myeloid leukemia MV-4-11 cell, human chronic myeloid leukemia K562 cell, human multiple myeloma MM.1S cell, human diffuse large B-cell lymphoma SU-DHL-6 cell, human T-cell leukemia Jurkat cells, human Burkitt lymphoma Raji cell, human castration-resistant prostate cancer PC-3 cell, human ovarian cancer A2780 cell, human bladder cancer 5637 cell, human breast cancer ZR-75-1 cell, human triple negative breast cancer MDA-MB-231 cell, human uterine sarcoma MES-SA cell, human gastric cancer SNU-16 cell, human non-small cell lung cancer NCI-H1975 cell, human small cell lung cancer NCI-H82 cell, human large cell lung cancer NCI-H460 cell, human colorectal cancer HCT116 cell, human glioma U-87 MG cell, human pancreatic cancer AsPC-1 cell, and human liver cancer Hep G2 cell is shown in IC50 value in Table 2.
On the technique in general: Tetrazolium dyes change colour on reduction, which living cells bring about.

Assay [2] deals with BRD4 protein (Homo sapiens (Human), UniProt O60885). Kind of assay: BRD4 protein degradation inducing action in cancer cells (immunofluorescence, Operetta). The class given is cell-based. To be noted: LNCaP cells, 6 hr treatment, fluorescence intensity. The procedure: The degradation inducing action of the compound of the present invention on BRD4 protein in cancer cells was evaluated in vitro using human prostate cancer LNCaP cells. LNCaP cells were suspended in 10% FBS/RPMI1640, seeded in a 96 well Cell carrier plate (Perkin Elmer) and cultured at 5% CO2, 37° C. overnight. A test compound dissolved in DMSO was diluted with 10% FBS/RPMI1640 and added and the cells were further cultured for 6 hr. After culturing, the cells were immobilized with 4% para-formaldehyde/PBS and further subjected to a permeation treatment with 0.25% Triton X-100/PBS. Thereafter, the cells were blocked with 10% BSA/PBS, a solution containing Anti-Brd4 antibody (Abcam) or Anti-BRD4 (Sigma-Aldrich) as the primary antibody was added and the cells were incubated at 4° C. overnight. Thereafter, as the secondary antibody, a solution containing secondary antibody A shown below was added to Example compounds 1-190, 223 and 224, and a solution containing secondary antibody B shown below was added to Example compounds 191-222, and 0.5 μg/mL Hoechst 33342 (Sigma-Aldrich) and 14 μM Acti-Stain 555 Fluorescent Phalloidin (Cytoskeleton) were further added. After incubation for 1 hr, BRD4 protein amount was measured by Operetta (Perkin Elmer) as fluorescence intensity.
• Anti-Rabbit IgG(H+L), F(ab′)2 Fragment (Alexa Fluor 488 Conjugate) (Cell Signaling Technology), fluorescence intensity was measured at excitation: 495 nm, emission: 519 nm. Secondary Antibody B • Goat anti-Rabbit IgG(H+L) Cross-Adserbed Secondary Antibody (Alexa Fluor 546) (Thermo Fisher Scientific) fluorescence intensity was measured at excitation: 560 nm, emission: 572 nm.
The BRD4 protein degradation inducing activity of the compound of the present invention in LNCaP cells is shown in DC50 value in Table 3. The DC50 value is a concentration of the compound showing 50% fluorescence intensity when the fluorescence intensity thereof under compound untreated condition is 100%. It was calculated from the straight line connecting the fluorescence intensity at two points enclosing the 50% fluorescence intensity and the compound concentration.

As usually defined, the IC50 is the concentration needed to halve the response being measured. The term DC50 denotes the midpoint of the concentration-degradation curve. A higher DC50 goes with a less potent degrader. For `COC(=O)C[C@@H]1N=C(c2ccc(-c3ccc(/C=C/C(=O)N[C@H](C(=O)N4C[C@H](O)C[C@H]4C(=O)N[C@@H](C)c4ccc(-c5scnc5C)cc4)C(C)(C)C)cc3)cc2)c2c(sc(C)c2C)-n2c(C)nnc21` [Example 27, methyl [(6S)-4-{4′-[(1E)-3-({(2S)-1-[(2S,4R)-4-hydroxy-2-({(1S)-1-[4-(4-methyl-1,3-thiazol-5-yl)phenyl]ethyl}carbamoyl)pyrrolidin-1-yl]-3,3-dimethyl-1-oxobutan-2-yl}amino)-3-oxopropen-1-yl][1,1′-biphenyl]-4-yl}-2,3,9-trimethyl-6H-thieno[3,2-f][1,2,4]triazolo[4,3-a] [1,4]diazepin-6-yl]acetate], the IC50 in assay [1] is 0.064 nM. In assay [2], this compound gave a DC50 of 0.085 nM.

For `COC(=O)C[C@@H]1N=C(c2ccc(-c3ccc(C(=O)N[C@H](C(=O)N4C[C@H](O)C[C@H]4C(=O)NCc4ccc(-c5scnc5C)cc4)C(C)(C)C)cc3F)cc2)c2c(sc(C)c2C)-n2c(C)nnc21` [Example 189, methyl {(6S)-4-[2′-fluoro-4′-({(2S)-1-[(2S,4R)-4-hydroxy-2-({[4-(4-methyl-1,3-thiazol-5-yl)phenyl]methyl}carbamoyl)pyrrolidin-1-yl]-3,3-dimethyl-1-oxobutan-2-yl}carbamoyl) [1,1′-biphenyl]-4-yl]-2,3,9-trimethyl-6H-thieno [3,2-f][1,2,4]triazolo [4,3-a][1,4]diazepin-6-yl}acetate], the IC50 in assay [1] came to 0.17 nM. Besides, in assay [2], the DC50 amounted to 0.44 nM.

Take `COC(=O)C[C@@H]1N=C(c2ccc(-c3ccc(C(=O)N[C@H](C(=O)N4C[C@H](O)C[C@H]4C(=O)N[C@@H](C)c4ccc(-c5scnc5C)cc4)C(C)(C)C)c(C)c3)cc2)c2c(sc(C)c2C)-n2c(C)nnc21` [Example 183, methyl {(6S)-4-[4′-({(2S)-1-[(2S,4R)-4-hydroxy-2-({(1S)-1-[4-(4-methyl-1,3-thiazol-5-yl)phenyl]ethyl}carbamoyl)pyrrolidin-1-yl]-3,3-dimethyl-1-oxobutan-2-yl}carbamoyl)-3′-methyl[1,1′-biphenyl]-4-yl]-2,3,9-trimethyl-6H-thieno[3,2-f][1,2,4]triazolo[4,3-a][1,4]diazepin-6-yl}acetate]: the IC50 in assay [1] came to 1.5 nM. It took 0.93 nM to reach half-maximal degradation in assay [2] (DC50).

On to `COC(=O)C[C@@H]1N=C(c2ccc(-c3ccc(OC(F)(F)C(=O)N[C@H](C(=O)N4C[C@H](O)C[C@H]4C(=O)N[C@@H](C)c4ccc(-c5scnc5C)cc4)C(C)(C)C)cc3)cc2)c2c(sc(C)c2C)-n2c(C)nnc21` [Example 122, methyl [(6S)-4-{4′-[1,1-difluoro-2-({(2S)-1-[(2S,4R)-4-hydroxy-2-({(1S)-1-[4-(4-methyl-1,3-thiazol-5-yl)phenyl]ethyl}carbamoyl)pyrrolidin-1-yl]-3,3-dimethyl-1-oxobutan-2-yl}amino)-2-oxoethoxy][1,1′-biphenyl]-4-yl}-2,3,9-trimethyl-6H-thieno[3,2-f][1,2,4]triazolo[4,3-a][1,4]diazepin-6-yl]acetate], for which, in assay [1], the IC50 was 0.4 nM. The DC50 in assay [2] is 0.097 nM.

Turning to `COC(=O)C[C@@H]1N=C(c2ccc(-c3ccc(C(=O)N[C@H](C(=O)N4C[C@H](O)C[C@H]4C(=O)NCc4ccc(-c5scnc5C)cc4)C(C)(C)C)c(Cl)c3)cc2)c2c(sc(C)c2C)-n2c(C)nnc21` [Example 190, methyl {(6S)-4-[3′-chloro-4′-({(2S)-1-[(2S,4R)-4-hydroxy-2-({[4-(4-methyl-1,3-thiazol-5-yl)phenyl]methyl}carbamoyl)pyrrolidin-1-yl]-3,3-dimethyl-1-oxobutan-2-yl}carbamoyl)[1,1′-biphenyl]-4-yl]-2,3,9-trimethyl-6H-thieno[3,2-f][1,2,4]triazolo[4,3-a][1,4]diazepin-6-yl}acetate], in assay [1], the IC50 turned out to be 0.13 nM. Besides, in assay [2], the DC50 was 0.17 nM.

As for `Cc1ncsc1-c1ccc([C@H](C)NC(=O)[C@@H]2C[C@@H](O)CN2C(=O)[C@@H](NC(=O)c2ccc(-c3ccc(C4=N[C@@H](C)c5nnc(C)n5-c5sc6c(c54)CCC6)cc3)cc2)C(C)(C)C)cc1` [Example 200, (2S,4R)-1-[(2S)-2-({4′-[(45)-1,4-dimethyl-8,9-dihydro-4H,7H-cyclopenta[4,5]thieno[3,2-f][1,2,4]triazolo[4,3-a] [1,4]diazepin-6-yl][1,1′-biphenyl]-4-carbonyl}amino)-3,3-dimethylbutanoyl]-4-hydroxy-N-{(1S)-1-[4-(4-methyl-1,3-thiazol-5-yl)phenyl]ethyl}pyrrolidine-2-carboxamide], in assay [1], the half-maximal inhibitory concentration (IC50) turned out to be 0.38 nM. This compound gave a DC50 in assay [2] of 0.66 nM.

In the case of `COC(=O)C[C@@H]1N=C(c2ccc(-c3cccc(C(=O)N[C@H](C(=O)N4C[C@H](O)C[C@H]4C(=O)N[C@@H](C)c4ccc(-c5scnc5C)cc4)C(C)(C)C)n3)cc2)c2c(sc(C)c2C)-n2c(C)nnc21` [Example 113, methyl [(6S)-4-{4-[6-({(2S)-1-[(2S,4R)-4-hydroxy-2-({(1S)-1-[4-(4-methyl-1,3-thiazol-5-yl)phenyl]ethyl}carbamoyl)pyrrolidin-1-yl]-3,3-dimethyl-1-oxobutan-2-yl}carbamoyl)pyridin-2-yl]phenyl}-2,3,9-trimethyl-6H-thieno[3,2-f][1,2,4]triazolo[4,3-a][1,4]diazepin-6-yl]acetate], in assay [1], the IC50 was determined as 0.096 nM. In assay [2], this compound displayed a DC50 of 0.075 nM.

Consider `COC(=O)C[C@@H]1N=C(c2ccc(-c3ccc(C(=O)N[C@H](C(=O)N4C[C@H](O)C[C@H]4C(=O)N[C@@H](C)c4ccc(-c5scnc5C)cc4)C(C)(C)C)c(F)c3F)cc2)c2c(sc(C)c2C)-n2c(C)nnc21` [Example 176, methyl {(6S)-4-[2′,3′-difluoro-4′-({(2S)-1-[(2S,4R)-4-hydroxy-2-({(1S)-1-[4-(4-methyl-1,3-thiazol-5-yl)phenyl]ethyl}carbamoyl)pyrrolidin-1-yl]-3,3-dimethyl-1-oxobutan-2-yl}carbamoyl)[1,1′-biphenyl]-4-yl]-2,3,9-trimethyl-6H-thieno[3,2-f][1,2,4]triazolo[4,3-a][1,4]diazepin-6-yl}acetate], for which, in assay [1], the IC50 stood at 0.39 nM. It took 0.44 nM to reach half-maximal degradation in assay [2] (DC50).

Consider `COC(=O)N(C)C1N=C(c2ccc(-c3ccc(OCC(=O)N[C@H](C(=O)N4C[C@H](O)C[C@H]4C(=O)N[C@@H](C)c4ccc(-c5scnc5C)cc4)C(C)(C)C)cc3)cc2)c2c(sc(C)c2C)-n2c(C)nnc21` (stereo partly drawn) [Example 35, methyl (4-{4′-[2-({(2S)-1-[(2S,4R)-4-hydroxy-2-({(1S)-1-[4-(4-methyl-1,3-thiazol-5-yl)phenyl]ethyl}carbamoyl)pyrrolidin-1-yl]-3,3-dimethyl-1-oxobutan-2-yl}amino)-2-oxoethoxy][1,1′-biphenyl]-4-yl}-2,3,9-trimethyl-6H-thieno[3,2-f][1,2,4]triazolo[4,3-a][1,4]diazepin-6-yl)methylcarbamate], for which the IC50 in assay [1] was 3.9 nM. Also, in assay [2], it took 0.66 nM to reach half-maximal degradation (DC50).

In the case of `COC(=O)C[C@@H]1N=C(c2ccc(-c3ccccc3OCC(=O)N[C@H](C(=O)N3C[C@H](O)C[C@H]3C(=O)N[C@@H](C)c3ccc(-c4scnc4C)cc3)C(C)(C)C)cc2)c2c(sc(C)c2C)-n2c(C)nnc21` [Example 178, methyl [(6S)-4-{2′-[2-({(2S)-1-[(2S,4R)-4-hydroxy-2-({(1S)-1-[4-(4-methyl-1,3-thiazol-5-yl)phenyl]ethyl}carbamoyl)pyrrolidin-1-yl]-3,3-dimethyl-1-oxobutan-2-yl}amino)-2-oxoethoxy][1,1′-biphenyl]-4-yl}-2,3,9-trimethyl-6H-thieno[3,2-f][1,2,4]triazolo[4,3-a][1,4]diazepin-6-yl]acetate], the IC50 in assay [1] was found to be 0.68 nM. This compound also returned a DC50 in assay [2] of 0.8 nM.
